Experiments:
brain lesions = details: photothrombotic in vivo model in rats; cited from earlier work
retinal ganglion cells = details: in vivo; cited from earlier work
liver cells of rats = details: cited from earlier work
adult cardiomyocytes = assay: Adult cardiomyocytes under hypoxia and subsequent reoxygenation; apoptosis by Guava ViaCount assay; details: 18 hours hypoxia, 24 hours normoxic; DM-CHX greater than 1 μM; p<0.05
[1] = tested on: Hearts of 9-week-old male rats; parameters: species or system rats (Sprague-Dawley)

| SMILES | brain lesions triggered by radiation (brain lesions) | cell death caused by axotomy (retinal ganglion cells) | protection against cell death (liver cells of rats) | influence on apoptosis (adult cardiomyocytes) | size of the infarct, qualitative (TTC colouring, visual) [1] |
| --- | --- | --- | --- | --- | --- |
| CC1CC(C)C(=O)C(C(O)CC2CC(=O)NC(=O)C2)C1 (centres unmarked) [CHX, 4-[2-(3,5-dimethyl-2-oxocyclohexyl)-2-hydroxy-ethyl]-2,6-piperidindione] | reduces brain lesions | inhibits cell death caused by axotomy | protective property of CHX against cell death has also been demonstrated | – | – |
| C[C@@H]1C[C@@H]([C@H](O)CC2CC(=O)N(CC(=O)N(C)C)C(=O)C2)C(=O)[C@@H](C)C1 [DM-CHX] | – | – | – | statistically significant influence | serious difference in colouring |

Source: patent US20100311661A1, “USE OF COMPOUNDS DERIVED FROM CYCLOHEXIMIDE FOR THE TREATMENT OR PREVENTION OF, IN PARTICULAR, ISCHAEMIAS AND CARDIOPATHIES” (Max Planck Gesellschaft Zur Forderung Der Wissenschaften …, priority 2007, published 2010)
